Test results taken from ChEMBL document CHEMBL1926525 (Bioorg Med Chem Lett, 2011).

Experiments:
[1] = biological target: Dihydroorotate dehydrogenase (quinone), mitochondrial (Homo sapiens, UniProt Q02127); test: Inhibition of human dihydroorotate dehydrogenase
[2] = Half life in rat at 1 mg/kg, iv; format: ADME, organism-based; parameters: dose 1 mg/kg, route intravenous; conditions: in vivo
[3] = tested on: Rattus norvegicus; test: Antiinflammatory activity in rat Freund's adjuvant induced-arthritis model assessed as inhibition of paw edema at 10 mg/kg qd administered 10 days post challenge for 10 consecutive days; format: functional; conditions: 240 h
[4] = biological target: Dihydroorotate dehydrogenase (quinone), mitochondrial (Rattus norvegicus, UniProt Q63707); test: Inhibition of rat dihydroorotate dehydrogenase
[5] = Metabolic stability in rat microsomes assessed as compound degradation at 5 uM after 30 mins; format: ADME, Microsome; conditions: read-out: Drug metabolism
[6] = Metabolic stability in human microsomes assessed as compound degradation at 5 uM after 30 mins; format: ADME, Microsome; conditions: read-out: Drug metabolism
[7] = Half life in human plasma; format: ADME, organism-based
[8] = tested on: PBMC; test: Antiproliferative activity against PHA-stimulated human PBMC assessed as inhibition of […] after 72 hrs by BrdU-ELISA assay; format: functional, cell-based
[9] = tested on: Rattus norvegicus; test: Antiinflammatory activity in rat Freund's adjuvant induced-arthritis model assessed as inhibition of paw edema administered 10 days post challenge once daily for 10 days; format: functional; conditions: 240 h

Chain of Dihydroorotate dehydrogenase (quinone), mitochondrial (Homo sapiens, UniProt Q02127) (Q02127 whole entry): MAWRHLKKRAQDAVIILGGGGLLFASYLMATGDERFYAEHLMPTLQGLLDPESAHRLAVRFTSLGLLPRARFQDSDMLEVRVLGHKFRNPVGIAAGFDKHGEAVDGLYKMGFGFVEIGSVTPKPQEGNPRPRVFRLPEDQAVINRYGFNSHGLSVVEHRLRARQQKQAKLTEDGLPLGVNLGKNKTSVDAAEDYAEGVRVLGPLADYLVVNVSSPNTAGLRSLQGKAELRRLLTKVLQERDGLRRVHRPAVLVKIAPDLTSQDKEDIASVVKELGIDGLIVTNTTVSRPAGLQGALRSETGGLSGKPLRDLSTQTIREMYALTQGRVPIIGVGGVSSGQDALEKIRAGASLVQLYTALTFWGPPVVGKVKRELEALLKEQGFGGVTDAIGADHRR
Chain of Dihydroorotate dehydrogenase (quinone), mitochondrial (Rattus norvegicus, UniProt Q63707) (Q63707 whole entry): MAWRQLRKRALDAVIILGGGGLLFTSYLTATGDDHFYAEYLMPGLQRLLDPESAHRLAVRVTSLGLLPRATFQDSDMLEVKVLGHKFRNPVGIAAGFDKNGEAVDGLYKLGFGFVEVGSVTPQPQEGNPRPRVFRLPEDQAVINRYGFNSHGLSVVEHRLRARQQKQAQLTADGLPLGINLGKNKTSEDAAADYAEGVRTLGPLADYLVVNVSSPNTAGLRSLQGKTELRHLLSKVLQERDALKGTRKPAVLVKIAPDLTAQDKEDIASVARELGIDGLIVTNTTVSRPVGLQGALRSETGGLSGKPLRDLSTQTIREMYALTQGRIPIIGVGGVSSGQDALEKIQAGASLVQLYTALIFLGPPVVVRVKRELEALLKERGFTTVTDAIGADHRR

Row | SMILES | IC50 [1] [nM] | IC50 [8] [nM] | other results
1 | CC/C(O)=C(\C#N)C(=O)Nc1ccc(OS(=O)(=O)C(F)(F)F)cc1 | 150 | – | half-life [2]: 8 h
2 | CC/C(O)=C(\C#N)C(=O)Nc1ccc(OS(=O)(=O)C(F)(F)F)c(C(=O)OC)c1 | 93 | – | half-life [2]: 2 h
3 | CC/C(O)=C(\C#N)C(=O)Nc1ccc(-c2ccccc2)c(C(=O)OC)c1 | 73 | – | –
4 | CC/C(O)=C(\C#N)C(=O)Nc1ccc(-c2ccc(F)cc2)c(C(=O)OC)c1 | 110 | 2000 | inhibition in vivo at 10 mg/kg [3]: 49%; IC50 [4]: 350 nM; metabolised at 0.5 h, 5 µM [5]: 19%; metabolised at 0.5 h, 5 µM [6]: 17%; half-life [7]: 336 h; half-life [2]: 0.9 h
5 | CC/C(O)=C(\C#N)C(=O)Nc1ccc(-c2cccc(F)c2)c(C(=O)OC)c1 | 198 | – | –
6 | CC/C(O)=C(\C#N)C(=O)Nc1ccc(-c2ccc(F)nc2)c(C(=O)OC)c1 | 150 | – | –
7 | CC/C(O)=C(\C#N)C(=O)Nc1ccc(-c2ccc(F)c(F)c2)c(C(=O)OC)c1 | 97 | – | –
8 | CC/C(O)=C(\C#N)C(=O)Nc1ccc(-c2cc(F)c(F)c(F)c2)c(C(=O)OC)c1 | 137 | 19000 | –
9 | CC/C(O)=C(\C#N)C(=O)Nc1ccc(-c2ccc(F)cc2OC)c(C(=O)OC)c1 | 66 | – | –
10 | CCOc1cccc(-c2ccc(NC(=O)/C(C#N)=C(\O)CC)cc2C(=O)OC)c1 | 59 | – | –
11 | CC/C(O)=C(\C#N)C(=O)Nc1ccc(-c2ccc3c(c2)OCO3)c(C(=O)OC)c1 | 76 | 18500 | –
12 | CC/C(O)=C(\C#N)C(=O)Nc1ccc(-c2ccc3c(c2)OCCO3)c(C(=O)OC)c1 | 66 | – | –
13 | C/C(O)=C(\C#N)C(=O)Nc1ccc(C(F)(F)F)cc1 [TERIFLUNOMIDE] | – | 46000 | metabolised at 0.5 h, 5 µM [5]: 0%; metabolised at 0.5 h, 5 µM [6]: 3%; ED50 [9]: 2.88 mg/kg; half-life [2]: 14.1 h

More lines, in order of falling IC50 [1], values ahead:

Row | IC50 [1] [nM] | SMILES | IC50 [8] [nM] | other results
14 | 52 | CC/C(O)=C(\C#N)C(=O)Nc1ccc(-c2ccccc2Cl)c(C(=O)OC)c1 | – | –
15 | 49 | CC/C(O)=C(\C#N)C(=O)Nc1ccc(-c2ccc(F)cc2C)c(C(=O)OC)c1 | – | –
16 | 45 | CC/C(O)=C(\C#N)C(=O)Nc1ccc(-c2ccc(Cl)cc2)c(C(=O)OC)c1 | 13000 | –
17 | 40 | CC/C(O)=C(\C#N)C(=O)Nc1ccc(-c2cccnc2)c(C(=O)OC)c1 | – | –
18 | 34 | CC/C(O)=C(\C#N)C(=O)Nc1ccc(-c2cccc(OC(F)F)c2)c(C(=O)OC)c1 | – | –
19 | 31 | CC/C(O)=C(\C#N)C(=O)Nc1ccc(-c2cccc(Cl)c2)c(C(=O)OC)c1 | 34000 | –
20 | 31 | CC/C(O)=C(\C#N)C(=O)Nc1ccc(-c2ccc(F)cc2F)c(C(=O)OC)c1 | 6000 | –
21 | 31 | CC/C(O)=C(\C#N)C(=O)Nc1ccc(-c2cccc(OC3CCC3)c2)c(C(=O)OC)c1 | – | –
22 | 27 | CC/C(O)=C(\C#N)C(=O)Nc1ccc(-c2cccc(OC(F)(F)F)c2)c(C(=O)OC)c1 | 37000 | –
23 | 26 | CC/C(O)=C(\C#N)C(=O)Nc1ccc(-c2cccc(OC)c2)c(C(=O)OC)c1 | – | –
